# Experiment: in vitro
# Conditions: human, hela cells, % viability
row,SMILES,"viability at 28.5 h, 10 µM"
1,COCCNC(=O)C(Cc1ccc(-c2ccc(S(C)(=O)=O)cc2)cc1)C1CCN(C(=O)OC(C)(C)C)CC1 (stereo not shown) [CBK173129],125%
2,O=C(O)CC(C(=O)Nc1ccc(Cl)cc1)C1CCCO1 (stereo not shown) [CBK264583],94.2%
3,Clc1ccc(SCc2cccc(CSc3ccc(Cl)c(Cl)c3)n2)cc1Cl [CBK223404],86.3%
4,Oc1cc(C(F)(F)F)nc(SCc2ccc(Cl)cc2)n1 [CBK002305],106%
5,c1ccc(N2CCN(c3nc(-c4ccoc4)cn4ccnc34)CC2)nc1 [CBK066522],99.7%
6,CS(=O)(=O)NCC1CCCN(C(=O)Nc2cccc(Cl)c2)C1 (stereo not shown) [CBK305736],79.5%
7,O=C(O)COc1ccc(Br)cc1/C=C\c1nc(O)c([N+](=O)[O-])c(=O)[nH]1 [CBK267223],88.5%
8,Cc1c(Cl)c(C(F)(F)F)nn1CCCNC(=S)Nc1ccc(S(N)(=O)=O)cc1 [CBK267113],100%
9,Cc1ccccc1Cc1cccc(C2CCN(CC(=O)Nc3nccs3)CC2)n1 [CBK286089],97.6%
10,Cc1ccc(C(C)C)c(OCC(=O)N2CCN(Cc3nc4cc([N+](=O)[O-])ccc4n3C)CC2)c1 [CBK268519],106%
11,CC[C@H]1CN(C(=O)c2cccnc2)CC[C@H]1CC(=O)NCc1cccs1 [CBK288773],89.7%
12,OCCn1ncc2c(NCc3cccnc3-n3cccn3)ncnc21 [CBK305977],90.6%
13,O=C(COc1ccccc1)NC(=S)Nc1cccc(-c2nc3ccccc3s2)c1 [CBK264360],107%
14,COc1ccccc1-c1cnc(N)c(N[C@H](C)c2ccccc2)n1 [CBK063705],102%
15,Cc1cc(OC(C)C(=O)Nc2ccccc2C(=O)N2CCCCC2)ccc1Cl (stereo not shown) [CBK269696],104%
16,O=C(O)C(c1c[nH]c2cc(F)ccc12)N1CCN(CC(=O)N2CCOCC2)CC1 (stereo not shown) [CBK286825],86.5%
17,COc1ccnc(N2CCN(Cc3nnnn3C3CC3)CC2)n1 [CBK305808],85.6%
18,COc1ccc(-c2cc(C(=O)N3CCN(C(C)=O)CC3)cnc2-c2ccc(Cl)cc2)cc1 [CBK037577],102%
19,Cn1c([C@H]2CCN(C(=O)c3cnccn3)C2)nc2ccccc21 [CBK289416],110%
20,Cc1ccc(-c2cncc(N(C)CCN(C)C)n2)cc1C [CBK065990],112%
21,C=C1C2(C(=O)NCCn3nc(C)c(Cl)c3C)CCC(C2)C1(C)C (stereo not shown) [CBK281661],81.5%
22,CC(=O)N1C[C@H](c2cccc(C)c2)[C@H]2CN(C3CCCC3)CC[C@H]21 [CBK283369],88.7%

row,SMILES,"viability at 28.5 h, 10 µM"
1,COc1ccc2[nH]c(SCC(=O)Nc3ccc(Br)cc3)nc2c1 [CBK263447],91%
2,CC(CC(=O)N1CCC(c2cc3cccnc3[nH]2)CC1)n1ccnc1 (stereo not shown) [CBK285028],107%
3,CCc1cc2c(=O)c(-c3nc(C)cs3)c(CCCC(=O)O)oc2cc1O [CBK264834],101%
4,O=S(=O)(Nc1ccc2ncccc2c1)c1ccc(OC(F)(F)F)cc1 [CBK045339],99.7%
5,Cc1cc(Cl)c(S(=O)(=O)Nc2ccc(I)cc2)cc1OCC(N)=O [CBK266418],105%
6,Cc1cccc(C(=O)NC(CC(C)C)c2nnc3n2CCNCC3)n1 (stereo not shown) [CBK306866],108%
7,Cc1cc2nccc(C3CCCN(C(=O)c4ccccc4F)C3)n2n1 (stereo not shown) [CBK284184],97.2%
8,C[C@@H](Cn1nc2c(cc1=O)CCCC2)NC(=O)c1cccc(F)c1 [CBK284561],87.5%
9,c1ccc2c(CCN3CCC(Oc4nccnc4OC4CCCCC4)CC3)c[nH]c2c1 [CBK082877T],86.2%
10,c1ccc2c(Sc3nccnc3N3CCCC3)cccc2c1 [CBK089527],89.2%
11,CN(CC(=O)NCC1CCN(c2cccc(Cl)c2)C1)Cc1cccnc1 (stereo not shown) [CBK306761],93.4%
12,c1ccc2c(c1)CCN(c1nc3cc4c(cc3s1)OCCO4)C2 [CBK287498],82.8%
13,CCN(c1ccccc1)S(=O)(=O)c1ccc(C(=O)NC(C)c2ccc3c(c2)OCCO3)cc1 (stereo not shown) [CBK296945],83.5%
14,CCC(C)N(C)CCNC(=O)Nc1ccc(F)c(-n2nnnc2C)c1 (stereo not shown) [CBK305176],101%
15,O=C1CN(C(=O)NCC2CCCCC2)CCN1 [CBK155854],85.9%
16,Cc1cc(N2C[C@H](CO)OC2=O)ccc1C#N [CBK017978],116%
17,CS(=O)(=O)c1ccc(-n2nnnc2CN2CCC3(CCC3)C2)cc1 [CBK306262],79.6%
18,CN(Cc1ccccc1)S(=O)(=O)c1ccc(OCC(=O)O)cc1 [CBK276426],97.9%
19,Fc1ccc2c(-c3ccccc3)noc2c1 [CBK025975],86.8%
20,CCC(CNC(=O)c1coc(COc2ccc3sc(C)nc3c2)n1)OC (stereo not shown) [CBK307248],72.3%
21,c1ccc2c(c1)n(CCN1CCOCC1)c1nc(C34CC5CC(CC(C5)C3)C4)cn21 [CBK278154C],105%
22,COc1cccc(N2CCN(CC(CC(=O)Nc3ccccc3)C(=O)O)CC2)c1 (stereo not shown) [CBK286813],89.8%

row,SMILES,"viability at 28.5 h, 10 µM"
1,CCOc1ccc(NC(=O)C2CC=CCC2C(=O)O)cc1 (stereo not shown) [CBK274682],110%
2,COc1cc(CN2CCNCC2)c2ccn(S(=O)(=O)c3ccccc3C#N)c2c1 [CBK144486T],89.4%
3,COc1cc([N+](=O)[O-])ccc1NC(=S)Nc1cccc(S(=O)(=O)N2CCOCC2)c1 [CBK267042],96.9%
4,O=C(O)CSCc1ccc(C(=O)O)o1 [CBK263267],107%
5,Cc1cc(C)cc(C(=O)N(CCc2ccccc2)C2CC3CCC(C2)N3C)c1 (stereo not shown) [CBK262612C],83.7%
6,CCOC(=O)c1c(NC(=O)Cn2cnc([N+](=O)[O-])n2)sc2c1CCCC2 [CBK262583],88.4%
7,O=C(C1COc2ccccc2O1)N(Cc1cccnc1)c1nc2c(F)cccc2s1 (stereo not shown) [CBK294421],91%
8,COc1ccc(NC(=O)N[C@H]2C[C@H]3C(=O)N[C@H](Cc4ccccc4)C(=O)N3C2)cc1 [CBK289227],84.7%
9,NC1CCN(c2ncccn2)CC1 [CBK174054],98.7%
10,C=CCn1c(Cc2csc(NC(=O)c3ccc(OC(F)F)cc3)n2)n[nH]c1=S [CBK295338],100%
11,NC1=C2NN(c3ccc(Cl)cc3Cl)N=C2N(c2ccccc2)N1 [CBK107773],98.1%
12,COC(=O)Cn1cc(CN2CC3CCCN3C[C@H]2C)c2ccccc21 (stereo partly shown) [CBK285436],92.2%
13,O=C(Nc1nnc[nH]1)c1ccccc1CCc1ccccc1 [CBK268616],95.9%
14,CCOC(=O)c1cnn(C2CCCN(Cc3cn(C)nc3C)C2)c1 (stereo not shown) [CBK304044],89.2%
15,O=C(c1cnn(-c2ccc(Cl)cc2Cl)c1)N1CCOCC1c1ncon1 (stereo not shown) [CBK304231],84.5%
16,CC(=O)Nc1cccc(-c2cncc(N[C@H](CO)C(C)C)n2)c1 [CBK065475],98.2%
17,CN1C(=O)COc2ccccc2C/C=C/C[C@@H]2[C@H]1CCCN2C(=O)CCCNc1ncccn1 [CBK292168],112%
18,CCCCN(C=O)c1c(CC)nc2ccc(C(=O)NCC3CCCCC3)cn12 [CBK145708],85.3%
19,O=C(/C=C/c1cccc([N+](=O)[O-])c1)Nc1ccc(Cl)c(-c2nc3ccccc3o2)c1 [CBK264610],102%
20,COc1ccc(N2CCN(c3cc(-c4cccc5ccccc45)ncn3)CC2)cc1OC [CBK091022],43.4%
21,O=C(Nc1ccc2c(c1)OCCO2)N1CCN(c2cc(C(F)(F)F)ccn2)CC1 [CBK162331],99.4%
22,COc1cccc(CC(=O)NCCNc2cccc(F)c2C#N)c1 [CBK305684],78.5%

row,SMILES,"viability at 28.5 h, 10 µM"
1,Cc1ncc(CN(Cc2ccccn2)Cc2ccccc2Cl)n1C [CBK282128],97.6%
2,Cc1cc2[nH]c(=O)oc2cc1S(=O)(=O)NCCN1CCCCC1CO (stereo not shown) [CBK307307],80.9%
3,O=C(CSc1ccc2nnc(-c3ccccc3)n2n1)Nc1ccccc1 [CBK287513],82.7%
4,O=C(CCNc1n[nH]c(=O)[nH]c1=O)N/N=C\c1ccccc1F [CBK263093],86.3%
5,C=Cn1cccc1C(=O)N1C2CCC1c1cnc3cc(C)nn3c1C2 (stereo not shown) [CBK284382],89.2%
6,CN1CCN(C(=O)c2ccsc2NS(=O)(=O)Cc2ccccc2)CC1 [CBK042266],97.5%
7,Cc1ccc(OCc2cccc3nsnc23)cc1[N+](=O)[O-] [CBK266063],98.2%
8,CCOC(=O)c1sc(-c2ccc(Br)cc2)nc1O [CBK075087],103%
9,Cc1nn(-c2ccc(F)cc2)c(C)c1C(=O)NCc1ccnc(N2CCCC2)c1 [CBK296700],93.3%
10,CC(C)OC(=O)C(NC(=O)OC(C)(C)C)c1ccccc1 (stereo not shown) [CBK170399],90.4%
11,CC(=O)Nc1cccc(NC(=O)CN(CCO)C2CCCCC2)c1 [CBK304239],85.7%
12,CCN1CCN(c2nccnc2OCc2cccnc2)CC1 [CBK083142],113%
13,COC(=O)c1c(NC(=O)CSc2nc[nH]n2)sc2c1CCCC2 [CBK267222],81.6%
14,COc1ccc(OCCNC(=O)c2ccc(C)nc2NCCCn2ccnc2)cc1 [CBK076385],117%
15,CCOC(=O)C(CNS(=O)(=O)c1ccc(F)cc1C)Cc1ccccc1 (stereo not shown) [CBK305427],92.3%
16,CCN1CCN(Cc2c(C)nc3ccc(C)cc3c2O)CC1 [CBK263699],89.8%
17,CCn1cnnc1C1CCN(C(=O)c2ccc(C)c(Cl)c2)CC1 [CBK303997],94.9%
18,Cc1cccc2cnc(C3CCN(C(=O)CCc4ccno4)CC3)cc12 [CBK285197],81%
19,O=C(O)CCC(=O)N1N=C2C(=Cc3ccc(F)cc3)CCCC2C1c1ccc(F)cc1 (stereo not shown) [CBK296066],93%
20,O=C(NNC(=O)c1ccc2c(c1)C(=O)N(Cc1ccco1)C2=O)c1cccnc1 [CBK267403],91%
21,N#CCCn1cc(C(N)=O)c(-c2cc3ccccc3o2)n1 [CBK306204],92.9%
22,CCCCOc1ccc(C(=O)N/C(=C/c2ccc(OC)cc2)C(=O)O)cc1 [CBK300490],87.5%
